# Assay results published in PubChem BioAssay (NCI).
#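 Compound exposure: 48 hours, 5 concentrations, 96-well plates. TGI: concentration producing complete growth inhibition.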
# Legend:
# Assay in all cases: NCI-60 cell line screen, 48 h
# SF-268 CNS = test system: SF-268 CNS
# LXFL 529 NSCLC = test system: LXFL 529 NSCLC
# SN12C renal = test system: SN12C renal
# MOLT-4 leukemia = test system: MOLT-4 leukemia
# KM20L2 colon = test system: KM20L2 colon
# NCI-H23 lung = test system: NCI-H23 lung
# SR leukemia = test system: SR leukemia
# COLO 205 colon = test system: COLO 205 colon
# SK-MEL-2 melanoma = test system: SK-MEL-2 melanoma
# SK-MEL-28 melanoma = test system: SK-MEL-28 melanoma
# HOP-62 NSCLC = test system: HOP-62 NSCLC
# EKVX NSCLC = test system: EKVX NSCLC
# DMS 114 small cell lung = test system: DMS 114 small cell lung
# KM12 colon = test system: KM12 colon
# DMS 273 small cell lung = test system: DMS 273 small cell lung
# UACC-257 melanoma = test system: UACC-257 melanoma
# OVCAR-4 ovarian = test system: OVCAR-4 ovarian
# SK-OV-3 ovarian = test system: SK-OV-3 ovarian
# OVCAR-3 ovarian = test system: OVCAR-3 ovarian
# SNB-78 CNS = test system: SNB-78 CNS
# NCI-H522 lung = test system: NCI-H522 lung
# SK-MEL-5 melanoma = test system: SK-MEL-5 melanoma
# NCI-H226 lung = test system: NCI-H226 lung
# CCRF-CEM leukemia = test system: CCRF-CEM leukemia
# OVCAR-5 ovarian = test system: OVCAR-5 ovarian
# HCT-116 colon = test system: HCT-116 colon
# K-562 leukemia = test system: K-562 leukemia
# HCC-2998 colon = test system: HCC-2998 colon
# NCI-H460 lung = test system: NCI-H460 lung
# TK-10 renal = test system: TK-10 renal
# U251 CNS = test system: U251 CNS
# SW-620 colon = test system: SW-620 colon
# 786-0 renal = test system: 786-0 renal
# SNB-75 CNS = test system: SNB-75 CNS
# HT29 colon = test system: HT29 colon
# M19-MEL melanoma = test system: M19-MEL melanoma
# ACHN renal = test system: ACHN renal
# UACC-62 melanoma = test system: UACC-62 melanoma
# UO-31 renal = test system: UO-31 renal
# M14 melanoma = test system: M14 melanoma
# SNB-19 CNS = test system: SNB-19 CNS
# SF-295 CNS = test system: SF-295 CNS
# HL-60(TB) leukemia = test system: HL-60(TB) leukemia
# A549 NSCLC = test system: A549 NSCLC
# A498 renal = test system: A498 renal
# DLD-1 colon = test system: DLD-1 colon
# OVCAR-8 ovarian = test system: OVCAR-8 ovarian
# SF-539 CNS = test system: SF-539 CNS
# HCT-15 colon = test system: HCT-15 colon
# MALME-3M melanoma = test system: MALME-3M melanoma
# RXF 393 renal = test system: RXF 393 renal
# BT-549 breast = test system: BT-549 breast
# HOP-92 NSCLC = test system: HOP-92 NSCLC
# IGROV1 ovarian = test system: IGROV1 ovarian
# NCI/ADR-RES ovarian = test system: NCI/ADR-RES ovarian
# LOX IMVI melanoma = test system: LOX IMVI melanoma
# MCF7 breast = test system: MCF7 breast
# CAKI-1 renal = test system: CAKI-1 renal
# MDA-MB-435 = test system: MDA-MB-435
# HS 578T breast = test system: HS 578T breast
# T-47D breast = test system: T-47D breast
# DU-145 prostate = test system: DU-145 prostate
# MDA-N = test system: MDA-N
# RPMI-8226 leukemia = test system: RPMI-8226 leukemia
# PC-3 prostate = test system: PC-3 prostate
# MDA-MB-231 breast = test system: MDA-MB-231 breast
smiles,measurement,setting,value
CSc1ccc2c(cc1=O)C(NC(=O)c1ccc(OC(C)=O)cc1)CCc1cc(O)c(O)c(O)c1-2 (centres undefined),TGI,SF-268 CNS,> 100 µM
same,TGI,LXFL 529 NSCLC,35.2 µM
same,TGI,SN12C renal,31.6 µM
same,TGI,MOLT-4 leukemia,28.9 µM
same,TGI,KM20L2 colon,> 100 µM
same,TGI,NCI-H23 lung,67.7 µM
same,TGI,SR leukemia,35.3 µM
same,TGI,COLO 205 colon,30.8 µM
same,TGI,SK-MEL-2 melanoma,49.7 µM
same,TGI,SK-MEL-28 melanoma,> 100 µM
same,TGI,HOP-62 NSCLC,> 100 µM
same,TGI,EKVX NSCLC,44 µM
same,TGI,DMS 114 small cell lung,52.4 µM
same,TGI,KM12 colon,> 100 µM
same,TGI,DMS 273 small cell lung,47.1 µM
same,TGI,UACC-257 melanoma,38.9 µM
same,TGI,OVCAR-4 ovarian,22 µM
same,TGI,SK-OV-3 ovarian,98.1 µM
same,TGI,OVCAR-3 ovarian,44.5 µM
same,TGI,SNB-78 CNS,> 100 µM
same,TGI,NCI-H522 lung,28.8 µM
same,TGI,SK-MEL-5 melanoma,31.5 µM
same,TGI,NCI-H226 lung,50.8 µM
same,TGI,CCRF-CEM leukemia,> 100 µM
same,TGI,OVCAR-5 ovarian,78 µM
same,TGI,HCT-116 colon,31.1 µM
same,TGI,K-562 leukemia,7.53 µM
same,TGI,HCC-2998 colon,> 100 µM
same,TGI,NCI-H460 lung,50.4 µM
same,TGI,TK-10 renal,> 100 µM
same,TGI,U251 CNS,39 µM
same,TGI,SW-620 colon,29.5 µM
same,TGI,786-0 renal,> 100 µM
same,TGI,SNB-75 CNS,55.6 µM
same,TGI,HT29 colon,37.9 µM
same,TGI,M19-MEL melanoma,29.2 µM
same,TGI,ACHN renal,> 100 µM
same,TGI,UACC-62 melanoma,36.3 µM
same,TGI,UO-31 renal,> 100 µM
same,TGI,M14 melanoma,30.7 µM
same,TGI,SNB-19 CNS,> 100 µM
same,TGI,SF-295 CNS,35.3 µM
same,TGI,HL-60(TB) leukemia,21.9 µM
same,TGI,A549 NSCLC,> 100 µM
same,TGI,A498 renal,> 100 µM
same,TGI,DLD-1 colon,35.8 µM
same,TGI,OVCAR-8 ovarian,60.2 µM
same,TGI,SF-539 CNS,40.1 µM
same,TGI,HCT-15 colon,34.9 µM
same,TGI,MALME-3M melanoma,> 100 µM
C[C@]12C=CC(=O)C=C1CC[C@@H]1[C@@H]2C(=O)C[C@@]2(C)[C@H]1CC[C@]2(O)C(=O)CO,TGI,RXF 393 renal,> 100 µM
same,TGI,SF-268 CNS,> 100 µM
same,TGI,BT-549 breast,> 100 µM
same,TGI,SN12C renal,> 100 µM
same,TGI,HOP-92 NSCLC,> 100 µM
same,TGI,MOLT-4 leukemia,> 100 µM
same,TGI,IGROV1 ovarian,> 100 µM
same,TGI,NCI-H23 lung,> 100 µM
same,TGI,SR leukemia,> 100 µM
same,TGI,NCI/ADR-RES ovarian,> 100 µM
same,TGI,COLO 205 colon,> 100 µM
same,TGI,SK-MEL-2 melanoma,> 100 µM
same,TGI,LOX IMVI melanoma,> 100 µM
same,TGI,SK-MEL-28 melanoma,> 100 µM
same,TGI,HOP-62 NSCLC,> 100 µM
same,TGI,MCF7 breast,> 100 µM
same,TGI,EKVX NSCLC,> 100 µM
same,TGI,KM12 colon,> 100 µM
same,TGI,UACC-257 melanoma,> 100 µM
same,TGI,CAKI-1 renal,> 100 µM
same,TGI,MDA-MB-435,> 100 µM
same,TGI,OVCAR-4 ovarian,> 100 µM
same,TGI,SK-OV-3 ovarian,> 100 µM
same,TGI,HS 578T breast,> 100 µM
same,TGI,OVCAR-3 ovarian,> 100 µM
same,TGI,NCI-H522 lung,> 100 µM
same,TGI,SK-MEL-5 melanoma,> 100 µM
same,TGI,T-47D breast,> 100 µM
same,TGI,NCI-H226 lung,> 100 µM
same,TGI,CCRF-CEM leukemia,> 100 µM
same,TGI,OVCAR-5 ovarian,> 100 µM
same,TGI,HCT-116 colon,> 100 µM
same,TGI,DU-145 prostate,> 100 µM
same,TGI,K-562 leukemia,> 100 µM
same,TGI,HCC-2998 colon,> 100 µM
same,TGI,MDA-N,> 100 µM
same,TGI,NCI-H460 lung,> 100 µM
same,TGI,TK-10 renal,> 100 µM
same,TGI,RPMI-8226 leukemia,> 100 µM
same,TGI,U251 CNS,> 100 µM
same,TGI,SW-620 colon,> 100 µM
same,TGI,786-0 renal,> 100 µM
same,TGI,SNB-75 CNS,> 100 µM
same,TGI,HT29 colon,> 100 µM
same,TGI,ACHN renal,> 100 µM
same,TGI,PC-3 prostate,> 100 µM
same,TGI,UACC-62 melanoma,> 100 µM
same,TGI,UO-31 renal,> 100 µM
same,TGI,M14 melanoma,> 100 µM
same,TGI,SNB-19 CNS,> 100 µM
same,TGI,SF-295 CNS,> 100 µM
same,TGI,HL-60(TB) leukemia,> 100 µM
same,TGI,A549 NSCLC,> 100 µM
same,TGI,A498 renal,> 100 µM
same,TGI,OVCAR-8 ovarian,> 100 µM
same,TGI,SF-539 CNS,> 100 µM
same,TGI,HCT-15 colon,> 100 µM
same,TGI,MDA-MB-231 breast,> 100 µM
same,TGI,MALME-3M melanoma,> 100 µM
